Experimental data: patent US11291684B2, “Treatment of glaucoma” (TX MEDIC AB, priority 2017, dated 2022)

Tested on: Schwann cells
Assay: Gene expression (microarray) in cultured Schwann cells
Type: cell-based, Human
Method: n=8×25 cm^2 culture flasks were set up. Two flasks were harvested on the day of treatment (24 hours after seeding). This represents the Day0 time point. From the remaining flasks, three flasks were treated with Control Medium and three were treated with Culture Medium (CM) containing dextran sulfate to give a final concentration of 0.01 mg/ml. Cells from the treated flasks were collected after 48 hours. Therefore the collected data represent (a) untreated cells (Day0 Controls and Day2 Controls) and (b) cells treated with dextran sulfate for 48 hours (Day2 dextran sulfate treated).
25 cm^2 flasks were coated by adding 2 ml per flask of a solution of 50 μg/ml poly-d-lysine in Hank's balanced salt solution (HBSS) and incubating overnight at 37° C. in the dark. Flasks were washed with cell culture water and air-dried for 30 min in the dark. Flasks were coated by adding 1 ml per flask of a solution of 25 μg/ml laminin in phosphate-buffered saline (PBS) and incubating for 2 hour at 37° C. in the dark. The laminin flasks were washed with PBS three times before plating cells.
Schwann cells growth medium was prepared by adding 10% of fetal bovine serum (FBS) to high-glucose DMEM and pre-warmed to 37° C. Cells were thawed in a 37° C. water bath for no longer than 2 min.
Cells from 12 vials were each gently transferred to a tube containing 10 ml of high-glucose DMEM medium and centrifuged at 400 relative centrifugal field (RCF) for 10 min. Pellet was resuspended in culture medium. The cells from the 12 vials were mixed and distributed equally into the previously coated 25 cm^2 flasks (n=8). Cells were incubated at 37° C. with 5% CO2. Cells were allowed to settle for 24 hours before dextran sulfate treatment.
Dextran sulfate (Tikomed AB, Sweden, WO 2016/076780) was provided at a stock concentration of 20 mg/ml and was kept in a temperature monitored refrigerator at 4° C. A fresh 100× dextran sulfate stock (1.0 mg/ml) was prepared in sterile DMEM-F12. The concentrated drug stock was sterile filtered and added to the respective culture media (19.6 ml CM and 0.4 ml dextran sulfate stock solution). The Control was made using 19.6 ml CM and 0.4 ml of DMEM-F12. Dextran sulfate and CM were added to the respective flasks (5 ml each) to reach the 0.01 mg/ml concentration of dextran sulfate in each dish with a total of 10 ml CM each.
CM was aspirated into a clean and labelled 15 ml Falcon tube. The flasks (without culture medium) were placed into the −80° C. freezer for 30 minutes. The CM in the Falcon tubes were spun at 3000×g for 5 minutes. Supernatant was removed and the small pellet was re-suspended in 2.5 ml Trizol:Water (4:1) solution at room temperature (RT, ˜22° C.).
The frozen flasks were removed one-by one from the freezer and the Trizol-Water from the appropriate tubes was moved to the flask. Flasks were left at RT for 5 minutes before the content was aspirated back into the 15 ml Falcon tube (after washing the bottom of the flask with the solution thoroughly). The flasks were inspected under the microscope to ensure full removal of cells. The collected lysates in the 15 ml Falcon tubes were placed into the −80° C. freezer.
Two aliquots of 1 ml lysate was removed from each sample and 200 μl of chloroform was added to each (0.2 ml of chloroform per 1 ml of TRIzol Reagent used during the cell lysis step) and the tube was shaken vigorously. Samples were stored at RT for 2-3 minutes and subsequently centrifuged at 12,000×g for 15 minutes at 4° C.
The RNA was precipitated from the aqueous phase by adding an equal amount of 100% ethanol. The precipitated RNA was fixed onto a Spin Cartridge, washed twice and dried. The RNA was eluted in 50 μl warm RNase-Free Water. The amount and quality of the purified RNA was measured by Nanodrop. The RNA was stored at −80° C. before transfer to Source Bioscience for Array analysis.
The expression data were downloaded into separate files for each cell line. […]

dextran sulfate
effect on cell adhesion and movement in Schwann cells (0.01 mg/ml, 48 hours): promoted cell detachment and movement | differentially expressed genes (D0 control vs D2 dextran sulfate treated, 0.01 mg/ml, 48 hours): 1244 genes | differentially expressed genes (D2 control vs D2 dextran sulfate treated, 0.01 mg/ml, 48 hours): 700 genes | increase in decorin expression, fold change (Schwann cells, 0.01 mg/ml, 48 hours): 1.242 | genes: abolished nutrient effect (no effect): 21 | genes: total (no effect): 21 | genes: abolished nutrient effect (significant downregulation): 1 | genes: enhanced response to nutrients (significant downregulation): 122 | genes: new effect induced by dextran sulfate (significant downregulation): 352 | genes: not different from control (significant downregulation): 42 | genes: total (significant downregulation): 517 | genes: abolished nutrient effect (significant upregulation): 13 | genes: enhanced response to nutrients (significant upregulation): 441 | genes: new effect induced by dextran sulfate (significant upregulation): 74 | genes: not different from control (significant upregulation): 373 | genes: total (significant upregulation): 901 | genes: abolished nutrient effect (total): 35 | genes: enhanced response to nutrients (total): 563 | genes: new effect induced by dextran sulfate (total): 426 | genes: not different from control (total): 415 | genes: total (total): 1439
